Laboratory results taken from US12077503B2, “Substituted cyclic amides and their use as herbicides” (FMC CORPORATION, priority 2015, dated 2024).

What was measured:
Format in all cases: in vivo
corn (Zea mays) [1] = experiment: Test G Post-Emergence Protocol; conditions: Zea mays, post-emergence, 312 h, read-out: Corn damage rating; for plant injury at 15.625 g/ha: 15.625 g ai/ha, evaluated after 13 days (100=total damage to plant; 0=no damage to plant); for plant injury at 62.5 g/ha: 62.5 g ai/ha; for plant injury at 62.5 g/ha / plant injury at 250 g/ha: evaluated after 13 days, 100=total damage to plant, 0=no damage to plant; for plant injury at 250 g/ha: 250 g ai/ha
Outline: (§1)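 A glasshouse post-emergence test: 8-day-old plants sprayed at 15.625, 62.5 or 250 g/ha, then grown at 24/16 °C day/night with 14 h light and 65% humidity. Damage rated 13 days later, 0–100.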

[2] = tested on: giant foxtail (Setaria faberi); experiment: Test G Post-Emergence Protocol; conditions: Setaria faberi, post-emergence, 312 h, read-out: Foxtail, Giant damage rating; for pest or weed control at 15.625 g/ha: 15.625 g ai/ha, evaluated after 13 days (100=total damage to plant; 0=no damage to plant); for pest or weed control at 62.5 g/ha: 62.5 g ai/ha
Outline: as §1

[3] = tested on: redroot pigweed (Amaranthus retroflexus); experiment: Test G Post-Emergence Protocol; conditions: Amaranthus retroflexus, post-emergence, 312 h, read-out: Pigweed, Redroot damage rating; for pest or weed control at 15.625 g/ha: 15.625 g ai/ha, evaluated after 13 days (100=total damage to plant; 0=no damage to plant); for pest or weed control at 62.5 g/ha: 62.5 g ai/ha; for pest or weed control at 62.5 g/ha / pest or weed control at 250 g/ha: evaluated after 13 days, 100=total damage to plant, 0=no damage to plant; for pest or weed control at 250 g/ha: 250 g ai/ha
Outline: as §1

[4] = tested on: velvetleaf (Abutilon theophrasti); experiment: Test G Post-Emergence Protocol; conditions: Abutilon theophrasti, post-emergence, 312 h, read-out: Velvetleaf damage rating; for pest or weed control at 15.625 g/ha: 15.625 g ai/ha, evaluated after 13 days (100=total damage to plant; 0=no damage to plant); for pest or weed control at 62.5 g/ha: 62.5 g ai/ha; for pest or weed control at 62.5 g/ha / pest or weed control at 250 g/ha: evaluated after 13 days, 100=total damage to plant, 0=no damage to plant; for pest or weed control at 250 g/ha: 250 g ai/ha
Outline: as §1

[5] = tested on: ivy-leaved morning glory (Ipomoea hederacea); experiment: Test G Post-Emergence Protocol; conditions: Ipomoea, post-emergence, 312 h, read-out: Morningglory, Ivy-leaved damage rating; for pest or weed control at 15.625 g/ha: 15.625 g ai/ha, evaluated after 13 days (100=total damage to plant; 0=no damage to plant); for pest or weed control at 62.5 g/ha: 62.5 g ai/ha; for pest or weed control at 62.5 g/ha / pest or weed control at 250 g/ha: evaluated after 13 days, 100=total damage to plant, 0=no damage to plant; for pest or weed control at 250 g/ha: 250 g ai/ha
Outline: as §1

[6] = tested on: barnyardgrass (Echinochloa crus-galli); experiment: Test G Post-Emergence Protocol; conditions: Echinochloa crus-galli, post-emergence, 312 h, read-out: Barnyardgrass damage rating; for pest or weed control at 15.625 g/ha: 15.625 g ai/ha, evaluated after 13 days (100=total damage to plant; 0=no damage to plant); for pest or weed control at 62.5 g/ha: 62.5 g ai/ha; for pest or weed control at 62.5 g/ha / pest or weed control at 250 g/ha: evaluated after 13 days, 100=total damage to plant, 0=no damage to plant; for pest or weed control at 250 g/ha: 250 g ai/ha
Outline: as §1

corn (Zea mays) [7] = experiment: Test G Pre-Emergence Protocol; conditions: Zea mays, pre-emergence, 312 h, evaluated after 13 days; for plant injury at 15.625 g/ha: 15.625 g ai/ha; for plant injury at 15.625 g/ha / plant injury at 250 g/ha: read-out: Corn damage rating (100=total damage to plant; 0=no damage to plant); for plant injury at 62.5 g/ha: 62.5 g ai/ha, 100=total damage to plant, 0=no damage to plant, read-out: Corn damage rating; for plant injury at 250 g/ha: 250 g ai/ha
Outline: (§2)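 One day after sowing, pots are treated with a spray of test compound formulated in acetone/water 50:50 plus 0.5% Tween 20, giving 15.625, 62.5 or 250 g/ha. Evaluation on a 0–100 damage scale follows 13 days of glasshouse growth.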

[8] = tested on: giant foxtail (Setaria faberi); experiment: Test G Pre-Emergence Protocol; conditions: Setaria faberi, pre-emergence, 312 h, evaluated after 13 days; for pest or weed control at 15.625 g/ha: 15.625 g ai/ha; for pest or weed control at 15.625 g/ha / pest or weed control at 250 g/ha: read-out: Foxtail, Giant damage rating (100=total damage to plant; 0=no damage to plant); for pest or weed control at 62.5 g/ha: 62.5 g ai/ha, 100=total damage to plant, 0=no damage to plant, read-out: Foxtail, Giant damage rating; for pest or weed control at 250 g/ha: 250 g ai/ha
Outline: as §2

[9] = tested on: redroot pigweed (Amaranthus retroflexus); experiment: Test G Pre-Emergence Protocol; conditions: Amaranthus retroflexus, pre-emergence, 312 h, evaluated after 13 days; for pest or weed control at 15.625 g/ha: 15.625 g ai/ha; for pest or weed control at 15.625 g/ha / pest or weed control at 250 g/ha: read-out: Pigweed, Redroot damage rating (100=total damage to plant; 0=no damage to plant); for pest or weed control at 62.5 g/ha: 62.5 g ai/ha, 100=total damage to plant, 0=no damage to plant, read-out: Pigweed, Redroot damage rating; for pest or weed control at 250 g/ha: 250 g ai/ha
Outline: as §2

[10] = tested on: velvetleaf (Abutilon theophrasti); experiment: Test G Pre-Emergence Protocol; conditions: Abutilon theophrasti, pre-emergence, 312 h, evaluated after 13 days; for pest or weed control at 15.625 g/ha: 15.625 g ai/ha; for pest or weed control at 15.625 g/ha / pest or weed control at 250 g/ha: read-out: Velvetleaf damage rating (100=total damage to plant; 0=no damage to plant); for pest or weed control at 62.5 g/ha: 62.5 g ai/ha, 100=total damage to plant, 0=no damage to plant, read-out: Velvetleaf damage rating; for pest or weed control at 250 g/ha: 250 g ai/ha
Outline: as §2

[11] = tested on: ivy-leaved morning glory (Ipomoea hederacea); experiment: Test G Pre-Emergence Protocol; conditions: Ipomoea, pre-emergence, 312 h, evaluated after 13 days; for pest or weed control at 15.625 g/ha: 15.625 g ai/ha; for pest or weed control at 15.625 g/ha / pest or weed control at 250 g/ha: read-out: Morningglory, Ivy-leaved damage rating (100=total damage to plant; 0=no damage to plant); for pest or weed control at 62.5 g/ha: 62.5 g ai/ha, 100=total damage to plant, 0=no damage to plant, read-out: Morningglory, Ivy-leaved damage rating; for pest or weed control at 250 g/ha: 250 g ai/ha
Outline: as §2

[12] = tested on: barnyardgrass (Echinochloa crus-galli); experiment: Test G Pre-Emergence Protocol; conditions: Echinochloa crus-galli, pre-emergence, 312 h, evaluated after 13 days; for pest or weed control at 15.625 g/ha: 15.625 g ai/ha; for pest or weed control at 15.625 g/ha / pest or weed control at 250 g/ha: read-out: Barnyardgrass damage rating (100=total damage to plant; 0=no damage to plant); for pest or weed control at 62.5 g/ha: 62.5 g ai/ha, 100=total damage to plant, 0=no damage to plant, read-out: Barnyardgrass damage rating; for pest or weed control at 250 g/ha: 250 g ai/ha
Outline: as §2

[13] = evaluated after 13 days, 100=total damage to plant, 0=no damage to plant

Row | Compound | plant injury at 15.625 g/ha (corn (Zea mays) [1]) [%] | plant injury at 62.5 g/ha (corn (Zea mays) [1]) [%] | plant injury at 250 g/ha (corn (Zea mays) [1]) [%] | pest or weed control at 15.625 g/ha [2] [%] | pest or weed control at 62.5 g/ha [2, 13] [%] | pest or weed control at 15.625 g/ha [3] [%] | pest or weed control at 62.5 g/ha [3] [%] | pest or weed control at 250 g/ha [3] [%] | pest or weed control at 15.625 g/ha [4] [%] | pest or weed control at 62.5 g/ha [4] [%] | pest or weed control at 250 g/ha [4] [%] | pest or weed control at 15.625 g/ha [5] [%] | pest or weed control at 62.5 g/ha [5] [%] | pest or weed control at 250 g/ha [5] [%] | pest or weed control at 15.625 g/ha [6] [%] | pest or weed control at 62.5 g/ha [6] [%] | pest or weed control at 250 g/ha [6] [%] | plant injury at 15.625 g/ha (corn (Zea mays) [7]) [%] | plant injury at 62.5 g/ha (corn (Zea mays) [7]) [%] | plant injury at 250 g/ha (corn (Zea mays) [7]) [%] | also measured
1 | COc1c(C)cc(C2CN(C)C(=O)C2C(=O)Nc2cccc(F)c2F)cc1C (centres unmarked) [Compound 1707] | 60 | 70 | 80 | 80 | 80 | 0 | 0 | 0 | 0 | 20 | 30 | 40 | 40 | 70 | 70 | 70 | 80 | 20 | 80 | 80 | pest or weed control at 15.625 g/ha [8]: 80%; pest or weed control at 62.5 g/ha [8]: 90%; pest or weed control at 250 g/ha [8]: 90%; pest or weed control at 15.625 g/ha [9]: 20%; pest or weed control at 62.5 g/ha [9]: 20%; pest or weed control at 250 g/ha [9]: 40%; pest or weed control at 15.625 g/ha [10]: 10%; pest or weed control at 62.5 g/ha [10]: 10%; pest or weed control at 250 g/ha [10]: 60%; pest or weed control at 15.625 g/ha [11]: 0%; pest or weed control at 62.5 g/ha [11]: 10%; pest or weed control at 250 g/ha [11]: 30%; pest or weed control at 15.625 g/ha [12]: 70%; pest or weed control at 62.5 g/ha [12]: 80%; pest or weed control at 250 g/ha [12]: 90%
2 | COc1cc(C2CN(C)C(=O)C2C(=O)Nc2cccc(F)c2F)cc(F)c1F (centres unmarked) [Compound 1706] | 0 | 0 | 70 | 70 | 80 | 0 | 10 | 20 | 0 | 20 | 20 | 20 | 0 | 60 | 40 | 60 | 80 | 0 | 10 | 40 | pest or weed control at 250 g/ha ([2]; 250 g ai/ha, evaluated after 13 days, 100=total damage to plant, 0=no damage to plant): 80%; pest or weed control at 15.625 g/ha [8]: 50%; pest or weed control at 62.5 g/ha [8]: 70%; pest or weed control at 250 g/ha [8]: 90%; pest or weed control at 15.625 g/ha [9]: 0%; pest or weed control at 62.5 g/ha [9]: 0%; pest or weed control at 250 g/ha [9]: 20%; pest or weed control at 15.625 g/ha [10]: 0%; pest or weed control at 62.5 g/ha [10]: 0%; pest or weed control at 250 g/ha [10]: 10%; pest or weed control at 15.625 g/ha [11]: 0%; pest or weed control at 62.5 g/ha [11]: 0%; pest or weed control at 250 g/ha [11]: 0%; pest or weed control at 15.625 g/ha [12]: 40%; pest or weed control at 62.5 g/ha [12]: 60%; pest or weed control at 250 g/ha [12]: 80%
